Results taken from article PMC11965401 (Nature Communications, 2025).
Values belong to the molecule of their own block, whether it stands above or below them.

Assays:
[1] = target: T1, CoREST1^NT2-HDAC2 (Homo sapiens, UniProt Q92769); experiment: microscale thermophoresis, competition with labelled KBTBD4 R313PRR; settings: blocks KBTBD4 R313PRR binding to HDAC2; HDAC2 catalytic site; pH 7.5, 25 °C
T1 construct: untagged full-length HDAC2 1-488 co-expressed with CoREST1 ELM2-SANT1 71-259 (C-terminal FLAG/10xHis) in Expi293F, purified; with REST corepressor 1

[2] = target: T2, KBTBD4^WT with CoREST1^NT2-HDAC2 (ternary complex) (Homo sapiens, UniProt Q92769+Q9NVX7); experiment: microscale thermophoresis, labelled KBTBD4 WT; format: binding
T2 construct: FLAG-KBTBD4 17-534 (near full length, dimer, N-terminal 3xFLAG); untagged full-length HDAC2 1-488 co-expressed with CoREST1 ELM2-SANT1 71-259 carrying C-terminal FLAG/10xHis; Expi293F; purified; complexes 2:1:1, also 2:1 and 2:2 KBTBD4:HDAC2 by cryo-EM; with REST corepressor 1

[3] = target: FLAG-KBTBD4^R313PRR (17-536 a.a.), full-length dimer (human (from the printed UniProt entry)) (UniProt Q9NVX7); experiment: MST; unlabelled partner titrated into 40 nM RED-NHS-labelled KBTBD4 variant, no compound; 50 mM HEPES pH 7.5, 150 mM NaCl, 10% glycerol, 5 mM MgCl2, 0.05% Tween-20, 0.1 mM TCEP; 25 °C; apparent KD; triplicates
[4] = target: FLAG-KBTBD4^R313PRR (17-536 a.a.), full-length dimer (human (from the printed UniProt entry)), Q9NVX7; experiment: cryo-EM structure; 4 µM KBTBD4^R313PRR mixed with 4 µM CoREST1^NT2-HDAC2, 50 mM HEPES pH 7.5, 150 mM NaCl, 10% glycerol, 5 mM MgCl2, 0.5 mM TCEP, 15 min on ice, not crosslinked; settings: remark: other sources report otherwise
[5] = target: FLAG-KBTBD4^WT (17-534 a.a.) (human (from the printed UniProt entry)), Q9NVX7; experiment: cryo-EM structure; 4 µM KBTBD4^WT, 4 µM CoREST1^NT2-HDAC2 and 40 µM UM171, 50 mM HEPES pH 7.5, 150 mM NaCl, 5% glycerol, 5 mM MgCl2, 0.5 mM TCEP, crosslinked with BS3; settings: remark: other sources report otherwise

Molecule: CC(=O)Nc1ccc(C(=O)Nc2cc(-c3cccs3)ccc2N)cc1 [BRD6929]
microscale thermophoresis, competition with labelled KBTBD4 R313PRR [1]: the addition of BRD6929 abrograted all KBTBD4^R313PRR-HDAC2 binding in the MST assay

Kd [2]: 26000 nM
Molecule: Cn1cc(-c2ccc3c(c2)[nH]c2nc(Cc4ccccc4)nc(NC4CCC(N)CC4)c23)cn1 (stereo not drawn) [compound 2, compound (2)]

Kd [2]: 2300 nM
Molecule: COC(=O)c1ccc2c(c1)[nH]c1nc(Cc3ccccc3)nc(NCCCN3CCCC3)c12 [compound 13, S234984]

Kd [3]: 750 nM
Molecule: CoREST1^NT2-HDAC2 complex (recombinant, co-expressed) (from UniProt Q92769-1 1-488)

stoichiometry N [4]: 2
B1: FLAG-KBTBD4^R313PRR (17-536 a.a.), full-length dimer, Q9NVX7-2 17-534 (natural protein)
chain: MESPEEPGASMDENYFVNYTFKDRSHSGRVAQGIMKLCLEEELFADVTISVEGREFQLHRLVLSAQSCFFRSMFTSNLKEAHNRVIVLQDVSESVFQLLVDYIYHGTVKLRAEELQEIYEVSDMYQLTSLFEECSRFLARTVQVGNCLQVMWLADRHSDPELYTAAKHCAKTHLAQLQNTEEFLHLPHRLLTDIISDGVPCSQNPTEAIEAWINFNKEEREAFAESLRTSLKEIGENVHIYLIGKESSRTHSLAVSLHCAEDDSISVSGQNSLCHQITAACKHGGDLYVVGGSIPRPRRMWKCNNATVDWEWCAPLPRDRLQHTLVSVPGKDAIYSLGGKTLQDTLSNAVIYYRVGDNVWTETTQLEVAVSGAAGANLNGIIYLLGGEENDLDFFTKPSRLIQCFDTETDKCHVKPYVLPFAGRMHAAVHKDLVFIVAEGDSLVCYNPLLDSFTRLCLPEAWSSAPSLWKIASCNGSIYVFRDRYKKGDANTYKLDPATSAVTVTRGIKVLLTNLQFVLA
modifications: here or on the partner: RED-NHS 2nd generation fluorescent label, in the MST experiments only; RED-NHS 2nd generation fluorescent label, in the MST experiments only

stoichiometry N [5]: 2
B2: FLAG-KBTBD4^WT (17-534 a.a.), Q9NVX7-2 17-534 (natural protein)
chain: MESPEEPGASMDENYFVNYTFKDRSHSGRVAQGIMKLCLEEELFADVTISVEGREFQLHRLVLSAQSCFFRSMFTSNLKEAHNRVIVLQDVSESVFQLLVDYIYHGTVKLRAEELQEIYEVSDMYQLTSLFEECSRFLARTVQVGNCLQVMWLADRHSDPELYTAAKHCAKTHLAQLQNTEEFLHLPHRLLTDIISDGVPCSQNPTEAIEAWINFNKEEREAFAESLRTSLKEIGENVHIYLIGKESSRTHSLAVSLHCAEDDSISVSGQNSLCHQITAACKHGGDLYVVGGSIPRRMWKCNNATVDWEWCAPLPRDRLQHTLVSVPGKDAIYSLGGKTLQDTLSNAVIYYRVGDNVWTETTQLEVAVSGAAGANLNGIIYLLGGEENDLDFFTKPSRLIQCFDTETDKCHVKPYVLPFAGRMHAAVHKDLVFIVAEGDSLVCYNPLLDSFTRLCLPEAWSSAPSLWKIASCNGSIYVFRDRYKKGDANTYKLDPATSAVTVTRGIKVLLTNLQFVLA
modifications: here or on the partner: RED-NHS 2nd generation fluorescent label, in the MST experiments only; RED-NHS 2nd generation fluorescent label, in the MST experiments only
